“Also recorded” adds a separate entry of the source.
Assays:
[1] = tested on: phospho-IKKα/β; assay: Western blot phospho-IKKα/β in dTHP-1 cells; assay type: cell-based, human; conditions: 7.5 µM; LPS-stimulated dTHP-1 cells
Procedure: Cells were lysed in the commercial RIPA Buffer (Thermo Fisher Scientific, Waltham, MA, USA) and then centrifuged at 14,000× g for 20 min. […] Antibodies used in this study were phospho-NF-κB p65 (S468; catalog no. 3039), phospho-NF-κB p65 (S536; catalog no. 3033), phospho-IKKα/β (catalog no. 2697), and IκB (catalog no. 9242) from Cell Signaling Technology (Beverly, MA, USA); GAPDH from ABclonal (catalog no. A10868; Woburn, MA, USA). The labeled signals were determined using an enhanced chemiluminescence system (UVP, Upland, CA, USA). The experiments were performed at least two times in triplicate, providing basically the same results.
The dTHP−1 cells were incubated with DMSO (0.1%), 19 (7.5 µM), or CAPE (10 µM) in medium for 3 h and then stimulated with or without LPS (0.1 µg/mL) for another 30 min. (A) The levels of phospho-NF-κB p65 (S536), phospho-IKKα/β, IκB, and GAPDH were determined by Western blot. The normalized (B) phospho-NF-κB p65 (S536), (C) phospho-IKKα/β, and (D) IκB levels were quantified. All data are expressed as mean ± SEM (n = 3); * p < 0.05 compared with the DMSO + LPS group.

[2] = biological target: T1, PRKCI (PKC iota) (Homo sapiens, UniProt P41743); assay: Kinase selectivity profiling (Thermo Fisher); assay type: biochemical; conditions: ATP 100 μM, n.i. = no inhibition
T1 construct: purchased Thermo Fisher Scientific (screening service)
Procedure: (§1) Tabl e S1. Selectivity profiling of compound 19 ag ainst the protein kinases known to regulate the NF-kB pathway ki nase % Inhibiti on at 2 µMa […]
(§2) aScreenings were perf or med as a servi ce at Thermo Fisher Scientific at an ATP concentrat ion of 100 μM. n.i., no inhi biti on. Data represent mean values of duplicat es that differed by less t han 7%.

[3] = biological target: T2, PRKCQ (PKC theta) (Homo sapiens, UniProt Q04759); assay: Kinase selectivity profiling (Thermo Fisher); assay type: biochemical; conditions: ATP 100 μM, n.i. = no inhibition
T2 construct: purchased Thermo Fisher Scientific (screening service)
Procedure: as §1, §2

[4] = biological target: T3, TBK1 (Homo sapiens, UniProt Q9UHD2); assay: Kinase selectivity profiling (Thermo Fisher); assay type: biochemical; conditions: ATP 100 μM, mean of duplicates
T3 construct: purchased Thermo Fisher Scientific (screening service)
Procedure: as §1, §2

[5] = biological target: T4, IKBKB (IKK beta) (Homo sapiens, UniProt O14920); assay: Kinase selectivity profiling (Thermo Fisher); assay type: biochemical; conditions: ATP 100 μM, mean of duplicates
T4 construct: purchased Thermo Fisher Scientific (screening service)
Procedure: as §1, §2

[6] = biological target: T5, GSK3B (GSK3 beta) (Homo sapiens, UniProt P49841); assay: Kinase selectivity profiling (Thermo Fisher); assay type: biochemical; conditions: ATP 100 μM, mean of duplicates
T5 construct: purchased Thermo Fisher Scientific (screening service)
Procedure: as §1, §2

[7] = biological target: T6, IRAK4 (Homo sapiens, UniProt Q9NWZ3); assay: Kinase selectivity profiling (Thermo Fisher); assay type: biochemical; conditions: ATP 100 μM, mean of duplicates
T6 construct: purchased Thermo Fisher Scientific (screening service)
Procedure: as §1, §2

[8] = biological target: T7, IKBKE (IKK epsilon) (Homo sapiens, UniProt Q14164); assay: Kinase selectivity profiling (Thermo Fisher); assay type: biochemical; conditions: ATP 100 μM, mean of duplicates
T7 construct: purchased Thermo Fisher Scientific (screening service)
Procedure: as §1, §2

[9] = biological target: T8, MAPK14 (p38 alpha) (Homo sapiens, UniProt Q16539); assay: Kinase selectivity profiling (Thermo Fisher); assay type: biochemical; conditions: ATP 100 μM, mean of duplicates
T8 construct: purchased Thermo Fisher Scientific (screening service)
Procedure: as §1, §2

[10] = biological target: T9, MAP3K14 (NIK) (Homo sapiens, UniProt Q99558); assay: Kinase selectivity profiling (Thermo Fisher); assay type: biochemical; conditions: ATP 100 μM, mean of duplicates
T9 construct: purchased Thermo Fisher Scientific (screening service)
Procedure: as §1, §2

[11] = biological target: T10, CHUK (IKK alpha) (Homo sapiens, UniProt O15111); assay: Kinase selectivity profiling (Thermo Fisher); assay type: biochemical; conditions: ATP 100 μM, mean of duplicates
T10 construct: purchased Thermo Fisher Scientific (screening service)
Procedure: as §1, §2

[12] = biological target: T11, RIPK2 (Homo sapiens, UniProt O43353); assay: Kinase selectivity profiling (Thermo Fisher); assay type: biochemical; conditions: ATP 100 μM, mean of duplicates
T11 construct: purchased Thermo Fisher Scientific (screening service)
Procedure: as §1, §2

[13] = biological target: T12, MAPK3 (ERK1) (Homo sapiens, UniProt P27361); assay: Kinase selectivity profiling (Thermo Fisher); assay type: biochemical; conditions: ATP 100 μM, mean of duplicates
T12 construct: purchased Thermo Fisher Scientific (screening service)
Procedure: as §1, §2

[14] = biological target: T13, PRKCZ (PKC zeta) (Homo sapiens, UniProt Q05513); assay: Kinase selectivity profiling (Thermo Fisher); assay type: biochemical; conditions: ATP 100 μM, mean of duplicates
T13 construct: purchased Thermo Fisher Scientific (screening service)
Procedure: as §1, §2

[15] = biological target: T14, MAP3K7/MAP3K7IP1 (TAK1-TAB1) (Homo sapiens, UniProt O43318); assay: Kinase selectivity profiling (Thermo Fisher); assay type: biochemical; conditions: ATP 100 μM, mean of duplicates
T14 construct: purchased Thermo Fisher Scientific (screening service)
Procedure: as §1, §2

[16] = biological target: T15, IRAK1 (Homo sapiens, UniProt P51617); assay: Kinase selectivity profiling (Thermo Fisher); assay type: biochemical; conditions: ATP 100 μM, mean of duplicates
T15 construct: purchased Thermo Fisher Scientific (screening service)
Procedure: as §1, §2

[17] = biological target: T16, RPS6KA1 (RSK1) (Homo sapiens, UniProt Q15418); assay: Kinase selectivity profiling (Thermo Fisher); assay type: biochemical; conditions: ATP 100 μM, mean of duplicates
T16 construct: purchased Thermo Fisher Scientific (screening service)
Procedure: as §1, §2

[18] = tested on: NF-κB; assay: NF-κB luciferase reporter assay; assay type: cell-based; conditions: Homo sapiens, NF-κB-luciferase-transfected HEK293 cells, TNFα 50 ng/mL
Procedure: NF-κB Luciferase Reporter Vector was purchased from Signosis (Santa Clara, CA, USA) and transfected into HEK-293 cells using FuGENE HD (Promega, Fitchburg, MA, USA) following the manufacturer’s protocol. The transfected cells were incubated in serum-free DMEM for 16 h and then treated with DMSO or indicated compounds. After 3 h, cells were treated with or without 50 ng/mL of Recombinant Human TNFα Protein (R&D systems, Minneapolis, MN, USA) for another 3 h. The protein lysates were analyzed using Steady-Glo® Luciferase Assay System (Promega, Fitchburg, MA, USA) and TECAN Infinite 200 pro (Männedorf, Switzerland).

[19] = Cell viability (WST-1), A549; assay type: cell-based; conditions: human, A549 cells, mean ± SEM, n = 3
Procedure: Cells were incubated with the WST-1 reagent (Thermo Fisher Scientific, Waltham, MA, USA) at 37 °C for 2 h. The cell viability was determined by spectrophotometer at 450 nm.

[20] = tested on: protein kinases known to regulate the NF-κB pathway; assay: Kinase screening panel as a whole; assay type: biochemical; conditions: Table S1
Description: While the EGFR kinase inhibitory activity was largely abolished here, it could not be excluded that our modifications may have generated affinity to another kinase. The most important kinases to be checked were those reported to phosphorylate p65-Ser468 in different cell types, comprising GSK3β, IKKβ, and IKKɛ [45, 46, 47]. In addition, all the kinases described in the literature to control the canonical and non-canonical pathway of NF-κB activation were also included in the screening panel. […] Instead, the inhibitory effect of 19 on the Ser468 phosphorylation might be indirect, e.g., through interference with proteins complexes regulating the Ser468 kinase activity.
as §1, §2

T14 sequence (O43318 with tags, fused parts or gaps limits assumed): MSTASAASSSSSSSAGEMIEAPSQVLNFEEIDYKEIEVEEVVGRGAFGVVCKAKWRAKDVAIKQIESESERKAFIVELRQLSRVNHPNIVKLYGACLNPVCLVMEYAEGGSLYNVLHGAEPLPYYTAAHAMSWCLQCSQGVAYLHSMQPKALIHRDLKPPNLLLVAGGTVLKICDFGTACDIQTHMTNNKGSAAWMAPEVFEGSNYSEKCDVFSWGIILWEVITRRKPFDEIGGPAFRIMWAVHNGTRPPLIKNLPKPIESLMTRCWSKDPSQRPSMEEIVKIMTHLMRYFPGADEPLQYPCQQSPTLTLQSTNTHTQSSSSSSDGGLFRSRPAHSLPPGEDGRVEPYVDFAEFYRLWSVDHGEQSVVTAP
T7 sequence (Q14164 whole entry): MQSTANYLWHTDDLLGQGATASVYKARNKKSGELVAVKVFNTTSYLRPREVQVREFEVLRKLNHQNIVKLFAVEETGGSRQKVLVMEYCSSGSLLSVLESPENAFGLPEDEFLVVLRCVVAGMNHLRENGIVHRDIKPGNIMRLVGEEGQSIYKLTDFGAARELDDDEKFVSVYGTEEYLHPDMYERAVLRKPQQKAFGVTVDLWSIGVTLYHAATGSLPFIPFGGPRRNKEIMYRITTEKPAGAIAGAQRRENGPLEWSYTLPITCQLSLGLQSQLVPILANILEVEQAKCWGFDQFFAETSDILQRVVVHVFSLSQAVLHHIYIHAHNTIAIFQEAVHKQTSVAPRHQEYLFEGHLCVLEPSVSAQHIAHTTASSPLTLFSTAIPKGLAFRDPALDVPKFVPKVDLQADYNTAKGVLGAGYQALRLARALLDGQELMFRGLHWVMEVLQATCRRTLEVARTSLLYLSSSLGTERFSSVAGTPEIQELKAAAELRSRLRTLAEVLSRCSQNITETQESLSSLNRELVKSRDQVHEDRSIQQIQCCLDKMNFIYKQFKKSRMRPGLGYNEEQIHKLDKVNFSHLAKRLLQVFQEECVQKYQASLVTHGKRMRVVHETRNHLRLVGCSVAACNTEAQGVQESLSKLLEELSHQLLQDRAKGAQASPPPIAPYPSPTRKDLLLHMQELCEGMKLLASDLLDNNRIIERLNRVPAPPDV
T9 sequence (Q99558 whole entry): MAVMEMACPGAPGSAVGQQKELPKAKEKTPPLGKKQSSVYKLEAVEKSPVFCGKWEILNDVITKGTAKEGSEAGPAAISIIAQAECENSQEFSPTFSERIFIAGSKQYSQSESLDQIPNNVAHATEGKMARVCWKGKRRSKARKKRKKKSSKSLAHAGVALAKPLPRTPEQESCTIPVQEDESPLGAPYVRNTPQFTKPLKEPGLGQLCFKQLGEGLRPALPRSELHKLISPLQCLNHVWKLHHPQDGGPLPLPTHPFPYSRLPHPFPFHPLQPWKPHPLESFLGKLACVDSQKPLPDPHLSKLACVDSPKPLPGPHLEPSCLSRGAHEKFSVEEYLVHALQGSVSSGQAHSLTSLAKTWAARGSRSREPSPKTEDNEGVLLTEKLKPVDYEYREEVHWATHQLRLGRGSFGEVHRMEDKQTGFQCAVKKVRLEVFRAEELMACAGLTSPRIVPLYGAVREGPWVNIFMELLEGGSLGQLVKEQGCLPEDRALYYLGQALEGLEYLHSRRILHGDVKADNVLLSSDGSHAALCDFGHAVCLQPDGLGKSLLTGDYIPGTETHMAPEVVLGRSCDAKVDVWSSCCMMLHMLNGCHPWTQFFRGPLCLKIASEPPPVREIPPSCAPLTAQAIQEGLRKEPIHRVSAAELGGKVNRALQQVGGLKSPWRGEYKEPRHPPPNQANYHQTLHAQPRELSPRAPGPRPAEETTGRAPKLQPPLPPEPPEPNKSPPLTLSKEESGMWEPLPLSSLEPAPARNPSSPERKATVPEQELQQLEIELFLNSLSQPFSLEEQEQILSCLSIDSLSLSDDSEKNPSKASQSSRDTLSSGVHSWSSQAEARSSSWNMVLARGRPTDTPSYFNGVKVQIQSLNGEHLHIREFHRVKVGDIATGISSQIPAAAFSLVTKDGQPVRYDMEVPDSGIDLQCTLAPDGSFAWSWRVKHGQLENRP
T4 sequence (O14920 whole entry): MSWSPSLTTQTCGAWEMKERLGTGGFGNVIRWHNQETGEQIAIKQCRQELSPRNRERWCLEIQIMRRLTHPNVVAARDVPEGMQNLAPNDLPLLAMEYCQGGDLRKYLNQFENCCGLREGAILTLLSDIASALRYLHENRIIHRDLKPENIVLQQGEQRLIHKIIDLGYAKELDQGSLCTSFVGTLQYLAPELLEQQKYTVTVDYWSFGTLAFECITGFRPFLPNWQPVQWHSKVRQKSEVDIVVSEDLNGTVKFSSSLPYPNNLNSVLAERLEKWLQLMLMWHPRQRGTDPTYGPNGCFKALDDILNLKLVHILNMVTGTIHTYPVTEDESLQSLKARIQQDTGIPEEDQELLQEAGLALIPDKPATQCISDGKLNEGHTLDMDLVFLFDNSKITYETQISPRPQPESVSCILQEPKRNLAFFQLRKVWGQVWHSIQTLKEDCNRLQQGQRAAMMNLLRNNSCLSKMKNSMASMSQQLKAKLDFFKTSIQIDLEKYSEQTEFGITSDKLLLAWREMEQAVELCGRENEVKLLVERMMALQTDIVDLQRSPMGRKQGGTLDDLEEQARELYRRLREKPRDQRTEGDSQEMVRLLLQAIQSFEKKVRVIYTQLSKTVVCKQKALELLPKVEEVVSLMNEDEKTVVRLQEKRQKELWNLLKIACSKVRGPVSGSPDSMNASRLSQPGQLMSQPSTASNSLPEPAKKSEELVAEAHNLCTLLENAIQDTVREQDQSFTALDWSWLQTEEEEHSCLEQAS
T15 sequence (P51617 whole entry): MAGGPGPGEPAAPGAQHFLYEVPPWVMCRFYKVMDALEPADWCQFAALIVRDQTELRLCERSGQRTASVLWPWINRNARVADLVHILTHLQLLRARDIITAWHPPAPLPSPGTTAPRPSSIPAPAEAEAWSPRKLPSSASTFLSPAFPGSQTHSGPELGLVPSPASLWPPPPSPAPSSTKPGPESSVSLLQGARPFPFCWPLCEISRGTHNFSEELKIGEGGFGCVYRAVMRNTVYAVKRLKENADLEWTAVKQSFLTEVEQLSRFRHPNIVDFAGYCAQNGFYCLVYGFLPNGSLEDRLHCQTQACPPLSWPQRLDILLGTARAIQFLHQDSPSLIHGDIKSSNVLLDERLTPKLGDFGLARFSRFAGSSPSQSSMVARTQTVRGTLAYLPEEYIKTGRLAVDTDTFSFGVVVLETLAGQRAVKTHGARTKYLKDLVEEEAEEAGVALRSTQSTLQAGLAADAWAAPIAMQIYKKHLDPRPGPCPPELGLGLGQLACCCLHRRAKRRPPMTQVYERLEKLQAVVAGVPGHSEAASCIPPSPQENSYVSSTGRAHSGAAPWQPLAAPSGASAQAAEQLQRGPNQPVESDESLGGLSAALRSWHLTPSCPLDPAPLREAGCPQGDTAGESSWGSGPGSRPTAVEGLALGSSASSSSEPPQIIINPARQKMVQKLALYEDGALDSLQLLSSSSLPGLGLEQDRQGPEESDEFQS
T6 sequence (Q9NWZ3 whole entry): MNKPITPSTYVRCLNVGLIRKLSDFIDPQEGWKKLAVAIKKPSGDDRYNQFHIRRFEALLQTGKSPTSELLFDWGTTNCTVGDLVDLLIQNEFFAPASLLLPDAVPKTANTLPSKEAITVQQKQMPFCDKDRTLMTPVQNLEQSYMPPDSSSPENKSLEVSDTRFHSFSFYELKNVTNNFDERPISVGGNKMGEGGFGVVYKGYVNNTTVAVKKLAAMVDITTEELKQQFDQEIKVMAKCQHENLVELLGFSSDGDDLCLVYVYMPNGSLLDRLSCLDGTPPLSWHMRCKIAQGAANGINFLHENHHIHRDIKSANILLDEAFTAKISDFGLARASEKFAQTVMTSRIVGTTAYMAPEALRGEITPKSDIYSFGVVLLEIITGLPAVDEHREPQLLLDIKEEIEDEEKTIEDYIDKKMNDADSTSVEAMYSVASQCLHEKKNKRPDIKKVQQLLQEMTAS
T11 sequence (O43353 whole entry): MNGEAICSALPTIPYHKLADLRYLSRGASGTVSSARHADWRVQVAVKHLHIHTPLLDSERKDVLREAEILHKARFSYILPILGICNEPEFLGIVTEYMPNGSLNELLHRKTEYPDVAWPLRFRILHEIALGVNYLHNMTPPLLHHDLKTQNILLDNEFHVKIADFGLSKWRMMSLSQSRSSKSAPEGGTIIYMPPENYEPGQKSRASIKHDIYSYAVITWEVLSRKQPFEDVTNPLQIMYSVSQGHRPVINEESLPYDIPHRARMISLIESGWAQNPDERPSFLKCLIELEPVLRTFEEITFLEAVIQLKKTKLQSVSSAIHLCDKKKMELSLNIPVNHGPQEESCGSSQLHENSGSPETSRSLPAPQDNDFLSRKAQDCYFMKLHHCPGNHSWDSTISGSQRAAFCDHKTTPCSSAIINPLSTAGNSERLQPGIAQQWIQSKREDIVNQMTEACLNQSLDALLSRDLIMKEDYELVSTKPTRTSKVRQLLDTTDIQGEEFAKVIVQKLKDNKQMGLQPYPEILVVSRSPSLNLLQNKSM
T8 sequence (Q16539 whole entry): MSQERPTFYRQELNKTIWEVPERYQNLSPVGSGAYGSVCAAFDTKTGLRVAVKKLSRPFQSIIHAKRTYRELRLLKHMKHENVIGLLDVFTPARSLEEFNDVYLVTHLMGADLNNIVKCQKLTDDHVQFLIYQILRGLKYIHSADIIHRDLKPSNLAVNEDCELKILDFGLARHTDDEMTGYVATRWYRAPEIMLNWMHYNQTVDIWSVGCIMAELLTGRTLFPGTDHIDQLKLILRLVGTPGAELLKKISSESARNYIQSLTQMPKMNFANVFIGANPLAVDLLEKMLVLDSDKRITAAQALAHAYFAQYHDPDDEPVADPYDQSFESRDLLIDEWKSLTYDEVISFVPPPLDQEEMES

% Inhibition at 2 µM, PRKCI (PKC iota) [2]: n.i.
% Inhibition at 2 µM, PRKCQ (PKC theta) [3]: n.i.
inhibition at 2 µM [4]: 8%
inhibition at 2 µM [5]: 3%
inhibition at 2 µM [6]: 4%
inhibition at 2 µM [7]: 5%
inhibition at 2 µM [8]: 3%
inhibition at 2 µM [9]: 4%
inhibition at 2 µM [10]: 9%
inhibition at 2 µM [11]: 6%
inhibition at 2 µM [12]: 29%
inhibition at 2 µM [13]: 2%
inhibition at 2 µM [14]: 3%
inhibition at 2 µM [15]: 3%
inhibition at 2 µM [16]: 2%
inhibition at 2 µM [17]: 1%
IC50 [18]: 2300 nM
melting point: 229.1 to 231.6 °C
SMILES: S=C(Nc1ccc2ncnc(Nc3cccc(Cl)c3)c2c1)NC1CCCC1 [Compound 19, 1-(4-((3-Chlorophenyl)amino)quinazolin-6-yl)-3-cyclopentylthiourea]
Activation of IKKα/β (phospho-IKKα/β) [1]: had no effects on IKKα/β-IκB signaling; also recorded: neither blocked the activation of IKKα/β
inhibition at 10 µM ([18]; 10 μM, mean ± SEM, n = 3, read-out: NF-κB Luciferase Activity Inh %): 92.5 ± 0.8%
viability at 10 µM [19]: 99.9 ± 1.6%
Inhibition of kinases involved in NF-κB activation (panel) [20]: did not appreciably inhibit any of these kinases
